This note sets out measurements from patent publication US8653275B2, “Bis-quaternary ammonium cyclophane compounds that interact with neuronal nicotinic acetylcholine receptors” (University of Kentucky Research Foundation, priority 2006, dated 2014).

Experiment [1] addresses T1, Rat striatal nicotinic receptors ([3H]nicotine binding) (Rattus norvegicus, UniProt P09483+P12390).
T1 construct: Whole brain, excluding cortex and cerebellum, was homogenized; from tissue; host or cells: rat brain membranes (whole brain excluding cortex and cerebellum)
The experiment is described as follows: Inhibition of [3H]nicotine binding. To be noted: 3 nM [3H]nicotine; for Inhibition of [3H]Nicotine binding: % inhibition at 100 nM analog, nonspecific binding with 10 μM cytisine. On the procedure:
(§1) Whole brain, excluding cortex and cerebellum, was homogenized in 20 vol of ice-cold buffer, containing (in mM): 2 HEPES, 11.8 NaCl, 0.48 KCl, 0.25 CaCl2 and 0.12 MgSO4, pH 7.5. Homogenate was centrifuged (25,000 g, 15 min, 4° C.). Pellets were resuspended in 20 vol buffer and incubated at 37° C., for 10 min, cooled to 4° C. and centrifuged (25,000 g, 15 min, 4° C.). Pellets were resuspended and centrifuged using the same conditions. Final pellets were stored in assay buffer, containing (in mM): 20 HEPES, 118 NaCl, 4.8 KCl, 2.5 CaCl2, and 1.2 MgSO4, pH 7.5 at −70° C. Upon use, final pellets were resuspended in ˜20 vol assay buffer. Samples (250 μl) contained 100-140 μg of membrane protein, 3 nM [^3H]nicotine or 3 nM [^3H]methyllycaconitine (MLA), and bis-quaternary ammonium cyclophane analog (100 nM) in assay buffer containing 50 mM Tris. Control was in the absence of analog. In [^3H]nicotine and [^3H]methyllycaconitine binding assays, nonspecific binding was determined in the presence of 10 μM cytisine and 10 μM nicotine, respectively. Incubations proceeded for 60 min at room temperature using 96-well plates and were terminated by harvesting on Unifilter-96 GF/B filter plates presoaked in 0.5% polyethylenimine, using a Packard FilterMate harvester. After washing 5 times with 350 μl ice-cold assay buffer, filter plates were dried (60 min, 4° C.), bottom-sealed, and filled with Packard's MicroScint 20 cocktail (40 μl/well). After 60 min, filter plates were top-sealed, and radioactivity determined using a Packard TopCount. Protein concentrations were determined using the Bradford dye-binding procedure bovine serum albumin as the standard.

Experiment [2] concerns the target T2, Rat striatal nicotinic receptors ([3H]MLA binding) (Rattus norvegicus, UniProt Q05941).
T2 construct: Whole brain, excluding cortex and cerebellum, was homogenized; from tissue; host or cells: rat brain membranes (whole brain excluding cortex and cerebellum)
The experiment is described as follows: Inhibition of [3H]methyllycaconitine (MLA) binding. To be noted: for Inhibition of [3H]MLA Binding: % inhibition at 100 nM analog, 2.5 nM [3H]MLA, nonspecific binding with 1 μM nicotine (footnote b). On the procedure: as §1, with “Samples (250 μl) contained 100-140 μg of membrane protein, 3 nM [^3H]nicotine or 3 nM [^3H]methyllycaconitine (MLA), and bis-quaternary ammonium cyclophane analog (100 nM) in assay buffer containing 50 mM Tris.” left out, “In [^3H]nicotine and [^3H]methyllycaconitine binding assays, nonspecific binding was determined in the presence of 10 μM cytisine and 10 μM nicotine, respectively.” left out

Experiment [3] deals with nicotine-evoked [3H]DA release, rat striatal slices. The experiment is described as follows: Inhibition of nicotine-evoked [3H]dopamine release from superfused rat striatal slices. Conditions: 100 nM analog superfused 60 min before nicotine (10 μM). The format is cell-based. On the procedure:
Rat striatal slices (500 μm thickness, 6-8 mg wet weight) were incubated for 30 minutes in Krebs buffer (118 mM NaCl, 4.7 mM KCl, 1.2 mM MgCl2, 1.0 mM NaH2PO4, 1.3 mM CaCl2, 11.1 mM glucose, 25 mM NaHCO3, 0.11 mM L-ascorbic acid, and 0.004 mM disodium EDTA; pH 7.4, and saturated with 95% O2/5% CO2) in a metabolic shaker at 34° C. Slices were rinsed with 15 mL of fresh buffer and incubated for an additional 30 minutes in fresh buffer containing 0.1 μM [^3H]dopamine (DA; 6 slices/3 mL). Subsequently, slices were rinsed with 15 mL of fresh buffer and transferred to a glass superfusion chamber. Slices were superfused (1.0 mL/min) for 60 minutes with Krebs buffer containing nomifensine (10 μM) and pargyline (10 μM) and maintained at 34° C., pH 7.4, with continual aeration (95% O2/5% CO2). Two five minute samples (5 mL each) were collected to determine basal outflow of [^3H]DA. The bis-quaternary ammonium cyclophane analogs were added to the superfusion buffer after the collection of the second sample and remained in the buffer until 12 consecutive five minute samples were collected. […] At the end of the experiment, each slice was solubilized and the [^3H] content of the tissue determined.
Radioactivity in the superfusate and tissue samples was determined by liquid scintillation spectroscopy. Fractional release for tritium collected in each sample was divided by the total tritium present in the tissue at the time of sample collection and was expressed as a percentage of total tritium. Basal [^3H]outflow was calculated from the average of the tritium collected in the two five minute samples just before addition of the quaternary ammonium analog. […] [^3H]Overflow was calculated by subtracting the [^3H]outflow during an equivalent period of prestimulation from the values in samples collected during and after drug exposure. […]
The bis-quaternary ammonium cyclophane analogs were also evaluated for their ability to inhibit nicotine evoked [^3H]DA release. […] Antagonist activity was evaluated by comparing the nicotine evoked [^3H]overflow in the absence and presence of the analogs. […]

Experiment [4] deals with BBB choline transporter. Description: Affinity for the BBB choline transporter. The experiment is classed as binding.
The mark [5] stands for this setting: full concentration effect evaluated.

T2 sequence (Q05941 23-502): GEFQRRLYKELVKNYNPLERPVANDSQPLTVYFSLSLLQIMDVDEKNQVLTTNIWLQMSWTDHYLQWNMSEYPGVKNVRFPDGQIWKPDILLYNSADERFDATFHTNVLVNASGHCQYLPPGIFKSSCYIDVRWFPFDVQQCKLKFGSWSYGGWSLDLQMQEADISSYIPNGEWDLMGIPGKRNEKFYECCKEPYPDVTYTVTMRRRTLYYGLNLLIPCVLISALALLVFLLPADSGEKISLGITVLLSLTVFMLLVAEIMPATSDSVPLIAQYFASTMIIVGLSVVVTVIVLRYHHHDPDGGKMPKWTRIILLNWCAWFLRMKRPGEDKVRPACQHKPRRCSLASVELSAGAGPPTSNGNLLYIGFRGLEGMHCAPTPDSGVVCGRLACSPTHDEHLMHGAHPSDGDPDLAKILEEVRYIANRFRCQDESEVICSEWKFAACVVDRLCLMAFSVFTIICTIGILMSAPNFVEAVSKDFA
T1 sequence (P09483 31-630): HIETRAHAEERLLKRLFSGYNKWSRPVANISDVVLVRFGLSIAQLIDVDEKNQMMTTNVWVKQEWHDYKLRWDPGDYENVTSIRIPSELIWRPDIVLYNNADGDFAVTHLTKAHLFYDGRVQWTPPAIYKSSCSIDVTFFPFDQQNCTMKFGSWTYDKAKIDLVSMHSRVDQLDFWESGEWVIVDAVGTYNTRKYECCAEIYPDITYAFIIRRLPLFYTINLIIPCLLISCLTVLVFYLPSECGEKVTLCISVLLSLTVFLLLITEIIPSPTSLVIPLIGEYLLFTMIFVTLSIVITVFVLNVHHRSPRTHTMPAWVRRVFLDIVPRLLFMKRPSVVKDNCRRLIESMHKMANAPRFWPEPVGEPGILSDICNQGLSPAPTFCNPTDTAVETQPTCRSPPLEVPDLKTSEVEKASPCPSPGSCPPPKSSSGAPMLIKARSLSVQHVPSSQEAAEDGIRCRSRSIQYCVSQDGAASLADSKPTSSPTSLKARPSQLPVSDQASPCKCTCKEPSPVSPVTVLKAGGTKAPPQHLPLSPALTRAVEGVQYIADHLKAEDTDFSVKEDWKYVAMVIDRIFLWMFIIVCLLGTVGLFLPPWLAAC
T1 sequence (P12390 25-500): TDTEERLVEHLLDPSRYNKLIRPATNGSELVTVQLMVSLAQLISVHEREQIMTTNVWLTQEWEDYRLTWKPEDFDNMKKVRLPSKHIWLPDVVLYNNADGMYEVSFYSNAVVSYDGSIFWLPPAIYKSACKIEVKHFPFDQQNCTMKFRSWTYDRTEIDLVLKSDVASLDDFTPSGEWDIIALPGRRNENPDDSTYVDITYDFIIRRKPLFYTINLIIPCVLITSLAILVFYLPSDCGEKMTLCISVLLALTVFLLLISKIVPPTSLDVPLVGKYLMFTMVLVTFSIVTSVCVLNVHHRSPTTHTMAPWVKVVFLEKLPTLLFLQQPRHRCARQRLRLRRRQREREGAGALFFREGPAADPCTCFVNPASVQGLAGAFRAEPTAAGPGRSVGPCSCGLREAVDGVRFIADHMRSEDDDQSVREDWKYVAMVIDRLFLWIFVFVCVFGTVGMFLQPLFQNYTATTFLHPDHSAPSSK

With `c1cc2c[n+](c1)CCCCCCCCCCCCc1ccc[n+](c1)CCCCCCCCCCCC2` [N,3′-(1,12-dodecanediyl)-3,N′-(1,12-dodecanediyl)-bis-pyridinium dibromide], in experiment [1], the “Inhibition of [3H]Nicotine binding” value is listed as 2%. Further, the “Inhibition of [3H]MLA Binding” value in experiment [2] is listed as 0%. Besides, the “Inhibition of Nicotine-evoked [3H]DA release” value (from here on “Inhibition of Nicotine-evoked”) in experiment [3] was 20%.
For `c1cc2c[n+](c1)CCCC[n+]1cccc(c1)CCCCCCCCCCCC2` [N,N′-(1,4-butanediyl)-3,3′-(1,12-dodecanediyl)-bis-pyridinium diiodide], in experiment [1], the “Inhibition of [3H]Nicotine binding” value worked out at 14 ± 2.6%. The “Inhibition of [3H]MLA Binding” value in experiment [2] is listed as 3.0 ± 3.0%. In addition, the “Inhibition of Nicotine-evoked” value in experiment [3] is 23%.
In experiment [4], `C1#Cc2ccc[n+](c2)CCCCCC[n+]2cccc(c2)C#CCCCCCC1.[I-].[I-]` [N,N′-(1,6-hexanediyl)-3,3′-(1,9-decanediyn-1,10-diyl)-bis-pyridinium diiodide] yielded a Ki of 33.6 µM. In experiment [1], the “Inhibition of [3H]Nicotine binding” value is given as 7%. Also, in experiment [2], the “Inhibition of [3H]MLA Binding” value was 2%.
With `C1#Cc2ccc[n+](c2)CCCCCCCC[n+]2cccc(c2)C#CCCCCCC1.[I-].[I-]` [N,N′-(1,8-octanediyl)-3,3′-(1,9-decanediyn-1,10-diyl)-bis-pyridinium diiodide], in experiment [1], the “Inhibition of [3H]Nicotine binding” value was determined as 9%. For the same compound, the “Inhibition of [3H]MLA Binding” value in experiment [2] was 0%.
The compound `C1#Cc2ccc[n+](c2)CCCCCCCCC[n+]2cccc(c2)C#CCCCCCC1.[Br-].[Br-]` [N,N′-(1,9-nonanediyl)-3,3′-(1,9-decanediyn-1,10-diyl)-bis-pyridinium dibromide] had a Ki in experiment [4] of 1.4 µM. Further, in experiment [1], the “Inhibition of [3H]Nicotine binding” value amounted to 0%. Further, the “Inhibition of [3H]MLA Binding” value in experiment [2] was 3%.
Take `C1#Cc2ccc[n+](c2)CCCCCCCCCC[n+]2cccc(c2)C#CCCCCCC1` [N,N′-(1,10-decanediyl)-3,3′-(1,9-decanediyn-1,10-diyl)-bis-pyridinium diiodide]: the Ki in experiment [4] worked out at 0.8 µM; in experiment [1] (setting [5]) it was 550 nM; in experiment [2] (setting [5]), 4.64 µM. Besides, the “Inhibition of Nicotine-evoked” value in experiment [3] worked out at 19%.
Compound `C1#Cc2ccc[n+](c2)CCCCCCCCCCC[n+]2cccc(c2)C#CCCCCCC1.[Br-].[Br-]` [N,N′-(1,11-undecanediyl)-3,3′-(1,9-decanediyn-1,10-diyl)-bis-pyridinium dibromide] had a Ki in experiment [4] of 15.2 µM. Also, the “Inhibition of [3H]Nicotine binding” value in experiment [1] is given as 11%. For the same compound, the “Inhibition of [3H]MLA Binding” value in experiment [2] amounted to 3%.
